Test results from patent US20200055808A1, “COMPOSITION FOR USE IN DETECTING AN ALLERGY TO CLAVULANIC ACID” (SERVICIO ANDALUZ DE SALUD, priority 2016, published 2020).

Legend:
basophils = assay: Basophil activation test (BAT) by flow cytometry; assay type: cell-based, human; settings: for BAT result (stimulation index): 5, 1 and 0.2 mM, 25 patients selective for CLV and 15 tolerant controls, positive at the highest concentration, FIG. 3; for stimulation indices in patients compared to controls: 8, 4, 2, 1 mM, 7 patients positive for Clav 2 vs 6 controls, p=0.003 Clav 2 and p=0.015 Clav 5 at 8 mM, p=0.015 Clav 2 at 4 mM, FIG. 5
From the text: The “basophil activation test” or “BAT” is an in vitro functional test which detects the activation of basophils after a stimulus with a specific antigen by detecting the expression of cell surface activation markers, which is usually monitored by flow cytometry using fluorescent monoclonal antibodies. Therefore, this test is used for the in vitro diagnosis of allergies. The technique comprises several steps: drawing blood and preparing the solution or suspension, performing stimulation with allergen(s), performing cellular marking with fluorescent antibodies which discriminate activated basophils, and performing counting in a flow cytometer. The technique can be carried out using as the substrate whole blood or the buffy coat previously isolated from the whole blood sample.
The BAT was performed as described by Torres M J et al. (Torres M J, et al. Clin Exp Allergy 2004; 34:1768-75) with CLV (Sigma Aldrich, Saint Louis, USA). […] The cells were stained with monoclonal antibodies, anti-CD63-FITC, CD203c-PE, CCR3-APC (Caltag Laboratories, Burlingame, Calif.), and measured in a FACSCalibur flow cytometer (Becton-Dickinson Bioscience, San José, Calif.) acquiring at least 500-1000 basophils per sample. The results were analyzed with FlowJo® software (Tree Star, Inc. USA), and the activation was expressed as a stimulation index (SI), calculated as the ratio between the percentage of activated basophils (CD63+ or CD203c+cells) in samples stimulated with different haptenes and non-stimulated sample. To calculate the SI, the percentage of spontaneously activated basophils was required to be equal to or greater than 5%, as described by Sanz M L et al. (Sanz M L, et al. Clin Exp Allergy 2002; 32:277-86).

[1] = test system: IgE-mediated basophil activation pathway; assay: BAT with wortmannin (WTM) inhibition of the IgE-mediated basophil activation pathway; assay type: cell-based, human; settings: WTM 1 μM; 8 mM: p=0.002 Clav2, p=0.001 Clav 5; 4 mM: p=0.001 both; FIG. 7
Experimental: To confirm that the activation of basophils was mediated by IgE, the inhibitory effect of wortmannin at 1 μM was analyzed. Wortmannin acts as a specific inhibitor of phosphatidylinositol 3-kinase (Pl3-K), which has proven to be one of the most important FceRI receptor-activated kinases involved in human basophil IgE-mediated stimulation. This was used with the positive control (anti-IgE) and the different haptenes and synthesized structures at the same concentrations described above.

[2] = 15 tolerant subjects, cutoff SI CLV >1.5, Clav 2 >3 (ROC curves), FIG. 4
[3] = 25 patients selective for CLV, cutoff SI CLV >1.5, Clav 2 >3 (ROC curves), FIG. 4
[4] = 6 tolerant controls, same cutoff point, FIG. 6
[5] = 7 patients positive for Clav 2 in the preceding test, same cutoff point, FIG. 6

| Compound | percentage of positive cases in BAT (basophils; [2]) | percentage of positive cases in BAT (basophils; [3]) | BAT result (stimulation index) (basophils; first phase) | percentage of positive cases in BAT (basophils; [4]) | percentage of positive cases in BAT (basophils; [5]) | stimulation indices in patients compared to controls (basophils) | stimulation index in patients compared to the tolerant controls (basophils; first phase, 25 patients selective for CLV vs 15 tolerant controls, p<0.0001 (Mann-Whitney)) | basophil activation after prior incubation with WTM [1] |
| --- | --- | --- | --- | --- | --- | --- | --- | --- |
| O=C(O)[C@H]1/C(=C/CO)O[C@@H]2CC(=O)N21 [CLV, (3R,5R,Z)-2-(2-hydroxyethylidene)-7-oxo-1-oxa-4-aza-bicyclo[3.2.0]heptane-3-carboxylic acid, reference compound] | 13.3% | 24% | – | – | – | – | – | – |
| CCCCNC(=O)CC(OC)OC [Clav 1, N-butyl-3,3-dimethoxypropanamide] | – | – | only Clav 2 provided positive results | – | – | – | – | – |
| CC(C)COC(=O)OC(=O)CC(=O)OC(=O)OCC(C)C [Clav 2, bis-((isobutoxycarbonyl)oxy)-1,3-dioxopropanoic anhydride] | 33.3% | 56% | positive results | no positive case | 85.7% | higher stimulation indices | significantly higher | IgE-mediated and specific |
| CCCCNC(=O)CCN [Clav 3, 3-amino-N-butylpropanamide] | – | – | only Clav 2 provided positive results | – | – | – | – | – |
| NCCC(=O)O [Clav 4, 3-aminopropanoic acid] | – | – | only Clav 2 provided positive results | – | – | – | – | – |
| CCOC(CC(=O)OC(=O)CC(OCC)OCC)OCC [Clav 5, 3,3-diethoxypropanoic anhydride] | – | – | – | 28.6% | 71.4% | higher stimulation indices | – | IgE-mediated and specific |
